In patent US6734179B2, “Benzothiazoles” (Hoffmann-La Roche Inc., priority 2001, dated 2004):

Tested on: not given
Experiment: not given
Conditions: not given

| melting point | SMILES |
| --- | --- |
| 268 to 275 °C | COc1ccc(C2=CCNCC2)c2sc(NC(=O)c3ccc(F)cc3)nc12.Cl |
| 314 to 315 °C | COc1ccc(C2CCNCC2)c2sc(NC(=O)N3CCOCC3)nc12.Cl |
| 164 to 173 °C | COC(=O)Nc1nc2c(OC)ccc(C3=CCCCC3)c2s1 [Example 22, (7-Cyclohex-1-enyl-4-methoxy-benzothiazol-2-yl)-carbamic acid methyl ester] |
| 192 to 195 °C | COc1ccc(C2CCCCC2)c2sc(NC(=O)c3ccc(F)cc3)nc12 [Example 23, N-(7-Cyclohexyl-4-methoxy-benzothiazol-2-yl)-4-fluoro-benzamide] |
| 200 to 202 °C | COc1ccc(C2CCOCC2)c2sc(NC(=O)c3ccnc(CN4CCCC4)c3)nc12 [Example 43, N-[4-Methoxy-7-(tetrahydro-pyran-4-yl)-benzothiazol-2-yl]-2-pyrrolidin-1-ylmethyl-isonicotinamide] |
| 106 to 109 °C | COc1ccc(C2CCOCC2)c2sc(NC(=O)N3CCC(O)CC3)nc12 [Example 45, 4-Hydroxy-piperidine-1-carboxylic acid [4-methoxy-7-(tetrahydro-pyran-4-yl)-benzothiazol-2-yl]-amide] |

Target: T1, human adenosine A2A receptor (Homo sapiens, UniProt P29274)
T1 construct: expressed in transfected cells; host or cells: CHO cells, semliki forest virus expression system; membrane preparation
Experiment: [3H]-SCH-58261 binding assay, human adenosine A2A receptor expressed in CHO cell membranes (SPA)
Conditions: [3H]-SCH-58261 1 nM, Ki by Cheng-Prussoff equation
Description: Human Adenosine A2A Receptor
The human adenosine A2A receptor was recombinantly expressed in chinese hamster ovary (CHO) cells using the semliki forest virus expression system. Cells were harvested, washed twice by centrifugation, homogenised and again washed by centrifugation. The final washed membrane pellet was suspended in a Tris (50 mM) buffer containing 120 mM NaCl, 5 mM KCl, 2 mM CaCl2 and 10 mM MgCl2 (pH 7.4) (buffer A). The [^3H]-SCH-58261 (Dionisotti et al., 1997, Br J Pharmacol 121, 353; 1 nM) binding assay was carried out in 96-well plates in the presence of 2.5 μg of membrane protein, 0.5 mg of Ysi-poly-1-lysine SPA beads and 0.1 U adenosine deaminase in a final volume of 200 μl of buffer A. Non-specific binding was defined using xanthine amine congener (XAC; 2 μM). Compounds were tested at 10 concentrations from 10 μM-0.3 nM. All assays were conducted in duplicate and repeated at least two times. Assay plates were incubated for 1 hour at room temperature before centrifugation and then bound ligand determined using a Packard Topcount scintillation counter. IC50 values were calculated using a non-linear curve fitting program and Ki values calculated using the Cheng-Prussoff equation.

T1 sequence (P29274 whole entry): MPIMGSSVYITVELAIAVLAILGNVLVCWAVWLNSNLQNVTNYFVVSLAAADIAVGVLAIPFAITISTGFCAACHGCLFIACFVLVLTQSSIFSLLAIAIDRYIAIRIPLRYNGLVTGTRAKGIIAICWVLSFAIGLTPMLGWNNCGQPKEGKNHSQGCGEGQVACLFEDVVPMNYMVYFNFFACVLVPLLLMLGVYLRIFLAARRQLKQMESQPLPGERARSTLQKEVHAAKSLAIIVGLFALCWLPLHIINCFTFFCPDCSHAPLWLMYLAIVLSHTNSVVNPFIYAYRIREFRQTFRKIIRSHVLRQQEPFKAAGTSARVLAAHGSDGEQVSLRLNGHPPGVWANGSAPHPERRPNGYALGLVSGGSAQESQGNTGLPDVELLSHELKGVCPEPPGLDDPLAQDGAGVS

| hA2 (pKi) | SMILES |
| --- | --- |
| 8.80 | COc1ccc(C2CCCCC2)c2sc(NC(=O)c3ccnc(CN4CCCC4)c3)nc12 [Example 25, N-(7-Cyclohexyl-4-methoxy-benzothiazol-2-yl)-2-pyrrolidin-1-yl-methyl-isonicotinamide] |

Same assay, conditions: [3H]-SCH-58261 1 nM, Ki by Cheng-Prussoff equation, read-out: hA2 (pKi) (converted)

| Ki | SMILES |
| --- | --- |
| 4.9 nM | COC(=O)Nc1nc2c(OC)ccc(C3=CCOCC3)c2s1 [Example 1, [7-(3,6-Dihydro-2H-pyran-4-yl)-4-methoxy-benzothiazol-2-yl]-carbamic acid methyl ester] |
| 11.5 nM | COC(=O)Nc1nc2c(OC)ccc(C3CCOCC3)c2s1 [Example 2, [4-Methoxy-7-(tetrahydro-pyran-4-yl)-benzothiazol-2-yl]-carbamic acid methyl ester] |
| 1.41 nM | COc1ccc(C2CCOCC2)c2sc(NC(=O)c3ccc(F)cc3)nc12 [Example 3, 4-Fluoro-N-[4-methoxy-7-(tetrahydro-pyran-4-yl)-benzothiazol-2-yl]-benzamide] |
| 1.74 nM | COc1ccc(C2CCOCC2)c2sc(NC(=O)c3ccnc(Br)c3)nc12 [Example 4, 2-Bromo-N-[4-methoxy-7-(tetrahydro-pyran-4-yl)-benzothiazol-2-yl]-isonicotinamide] |
| 2.82 nM | COc1ccc(C2CCOCC2)c2sc(NC(=O)c3ccnc(C)c3)nc12 [Example 5, N-[4-Methoxy-7-(tetrahydro-pyran-4-yl)-benzothiazol-2-yl]-2-methyl-isonicotinamide] |
| 0.759 nM | COc1ccc(C2CCOCC2)c2sc(NC(=O)c3ccnc(N4CCOCC4)c3)nc12 [Example 6, N-[4-Methoxy-7-(tetrahydro-pyran-4-yl)-benzothiazol-2-yl]-2-morpholin-4-yl-isonicotinamide] |
| 1.1 nM | COc1ccc(C2CCOCC2)c2sc(NC(=O)c3ccc(CCl)cc3)nc12 [Example 7, 4-Chloromethyl-N-[4-methoxy-7-(tetrahydro-pyran-4-yl)-benzothiazol-2-yl]-benzamide] |
| 2.4 nM | COCCN(C)Cc1ccc(C(=O)Nc2nc3c(OC)ccc(C4CCOCC4)c3s2)cc1 [Example 8, 4-{[(2-Methoxy-ethyl)-methyl-amino]-methyl}-N-[4-methoxy-7-(tetrahydro-pyran-4-yl)-benzothiazol-2-yl]-benzamide] |
| 5.01 nM | COc1ccc(C2=CCN(C(C)=O)CC2)c2sc(NC(=O)c3ccc(F)cc3)nc12 [Example 11, N-[7-(1-Acetyl-1,2,3,6-tetrahydro-pyridin-4-yl)-4-methoxy-benzothiazol-2-yl]-4-fluoro-benzamide] |
| 3.16 nM | COc1ccc(C2CCN(C(C)=O)CC2)c2sc(NC(=O)c3ccc(F)cc3)nc12 [Example 12, N-[7-(1-Acetyl-piperidin-4-yl)-4-methoxy-benzothiazol-2-yl]-4-fluoro-benzamide] |
| 6.31 nM | COc1ccc(C2CCN(C(C)=O)CC2)c2sc(NC(=O)c3ccnc(C)c3)nc12 [Example 17, N-[7-(1-Acetyl-piperidin-4-yl)-4-methoxy-benzothiazol-2-yl]-2-methyl-isonicotinamide] |
| 7.94 nM | COCCN(C)Cc1ccc(C(=O)Nc2nc3c(OC)ccc(C4CCN(C(C)=O)CC4)c3s2)cc1 [Example 18, N-[7-(1-Acetyl-piperidin-4-yl)-4-methoxy-benzothiazol-2-yl]-4-{[(2-methoxy-ethyl)-methylamino]-methyl}-benzamide] |
| 3.98 nM | COc1ccc(C2CCN(C(C)=O)CC2)c2sc(NC(=O)c3ccc(C)cc3)nc12 [Example 19, N-[7-(1-Acetyl-piperidin-4-yl)-4-methoxy-benzothiazol-2-yl]-4-methyl-benzamide] |
| 2.51 nM | COc1ccc(C2CCN(C(C)=O)CC2)c2sc(NC(=O)c3ccnc(N4CCOCC4)c3)nc12 [Example 20, N-[7-(1-Acetyl-piperidin-4-yl)-4-methoxy-benzothiazol-2-yl]-2-morpholin-4-yl-isonicotinamide] |
| 3.98 nM | COc1cc(C(=O)Nc2nc3c(OC)ccc(C4CCN(C(C)=O)CC4)c3s2)ccn1 [Example 21, N-[7-(1-Acetyl-piperidin-4-yl)-4-methoxy-benzothiazol-2-yl]-2-methoxy-isonicotinamide] |
| 10 nM | COC(=O)Nc1nc2c(OC)ccc(C3=CCCCC3)c2s1 [Example 22, (7-Cyclohex-1-enyl-4-methoxy-benzothiazol-2-yl)-carbamic acid methyl ester] |
| 0.2 nM | COc1ccc(C2CCCCC2)c2sc(NC(=O)c3ccc(F)cc3)nc12 [Example 23, N-(7-Cyclohexyl-4-methoxy-benzothiazol-2-yl)-4-fluoro-benzamide] |

| Ki | SMILES |
| --- | --- |
| 1.58 nM | COCCN(C)Cc1ccc(C(=O)Nc2nc3c(OC)ccc(C4CCCCC4)c3s2)cc1 [Example 24, N-(7-Cyclohexyl-4-methoxy-benzothiazol-2-yl)-4-{[(2-methoxy-ethyl)-methyl-amino]-methyl}-benzamide] |
| 1.07 nM | COc1ccc(C2CCOCC2)c2sc(NC(=O)c3ccc(C)nc3)nc12 [Example 28, N-[4-Methoxy-7-(tetrahydro-pyran-4-yl)-benzothiazol-2-yl]-6-methyl-nicotinamide] |
| 1.45 nM | COc1cc(C(=O)Nc2nc3c(OC)ccc(C4CCOCC4)c3s2)ccn1 [Example 31, 2-Methoxy-N-[4-methoxy-7-(tetrahydro-pyran-4-yl)-benzothiazol-2-yl]-isonicotinamide] |
| 2.75 nM | CCOc1cc(C(=O)Nc2nc3c(OC)ccc(C4CCOCC4)c3s2)ccn1 [Example 32, 2-Ethoxy-N-[4-methoxy-7-(tetrahydro-pyran-4-yl)-benzothiazol-2-yl]-isonicotinamide] |
| 1.66 nM | CCc1cc(C(=O)Nc2nc3c(OC)ccc(C4CCOCC4)c3s2)ccn1 [Example 33, 2-Ethyl-N-[4-methoxy-7-(tetrahydro-pyran-4-yl)-benzothiazol-2-yl]-isonicotinamide] |
| 1.82 nM | CCCc1cc(C(=O)Nc2nc3c(OC)ccc(C4CCOCC4)c3s2)ccn1 [Example 34, N-[4-Methoxy-7-(tetrahydro-pyran-4-yl)-benzothiazol-2-yl]-2-propyl-isonicotinamide] |
| 1.17 nM | COc1ccc(C2CCOCC2)c2sc(NC(=O)c3ccnc(C(C)C)c3)nc12 [Example 36, 2-Isopropyl-N-[4-methoxy-7-(tetrahydro-pyran-4-yl)-benzothiazol-2-yl]-isonicotinamide] |
| 3.8 nM | COc1ccc(C2CCCCO2)c2sc(NC(=O)c3ccnc(Br)c3)nc12 (stereo not shown) [Example 39, 2-Bromo-N-[4-methoxy-7-(tetrahydro-pyran-2-yl)-benzothiazol-2-yl]-isonicotinamide] |
| 3.39 nM | COc1ccc(C2CCCCO2)c2sc(NC(=O)c3ccc(F)cc3)nc12 (stereo not shown) [Example 40, 4-Fluoro-N-[4-methoxy-7-(tetrahydro-pyran-2-yl)-benzothiazol-2-yl]-benzamide] |
| 3.39 nM | COc1ccc(C2CCCCO2)c2sc(NC(=O)c3ccnc(C)c3)nc12 (stereo not shown) [Example 41, N-[4-Methoxy-7-(tetrahydro-pyran-2-yl)-benzothiazol-2-yl]-2-methyl-isonicotinamide] |
| 2.04 nM | COc1ccc(C2CCCCO2)c2sc(NC(=O)c3ccnc(N4CCOCC4)c3)nc12 (stereo not shown) [Example 42, N-[4-Methoxy-7-(tetrahydro-pyran-2-yl)-benzothiazol-2-yl]-2-morpholin-4-yl-isonicotinamide] |
| 1.23 nM | COc1ccc(C2CCOCC2)c2sc(NC(=O)c3ccnc(CN4CCCC4)c3)nc12 [Example 43, N-[4-Methoxy-7-(tetrahydro-pyran-4-yl)-benzothiazol-2-yl]-2-pyrrolidin-1-ylmethyl-isonicotinamide] |
| 1.51 nM | COc1ccc(C2CCOCC2)c2sc(NC(=O)N3CCOCC3)nc12 [Example 44, Morpholine-4-carboxylic acid [4-methoxy-7-(tetrahydro-pyran-4-yl)-benzothiazol-2-yl]-amide] |
| 1.62 nM | COc1ccc(C2CCOCC2)c2sc(NC(=O)N3CCC(O)CC3)nc12 [Example 45, 4-Hydroxy-piperidine-1-carboxylic acid [4-methoxy-7-(tetrahydro-pyran-4-yl)-benzothiazol-2-yl]-amide] |
| 0.871 nM | COCCNc1cc(C(=O)Nc2nc3c(OC)ccc(C4CCOCC4)c3s2)ccn1 [Example 46, 2-(2-Methoxy-ethylamino)-N-[4-methoxy-7-(tetrahydro-pyran-4-yl)-benzothiazol-2-yl]-isonicotinamide] |
| 1.51 nM | COCCN(C)c1cc(C(=O)Nc2nc3c(OC)ccc(C4CCOCC4)c3s2)ccn1 [Example 47, 2-[(2-Methoxy-ethyl)-methyl-amino]-N-[4-methoxy-7-(tetrahydro-pyran-4-yl)-benzothiazol-2-yl]-isonicotinamide] |
